pEC50: −log10 of the molar value. Like-named read-outs stand apart in the source and are kept apart here. Starred links: 1 amine or outer side, 2 acyl side, 3 side chain; linkers in the order of their positions; H or OH if unused. Non-standard residues stand in square brackets, D forms with d. Residues, ends and D or L forms follow the SMILES beside them. Groups on a side chain read outwards from the residue. *: point of attachment. C20 diacid = O=C(O)CCCCCCCCCCCCCCCCCCC(=O)*; C18 diacid = O=C(O)CCCCCCCCCCCCCCCCC(=O)*; γGlu = O=C(O)[C@H](CCC(=O)[*:2])N[*:1]; αMeF = C[C@](N)(Cc1ccccc1)C(=O)O; AEEA = NCCOCCOCC(=O)O; Aib = CC(C)(N)C(=O)O

A short description of data set [1]: Proteolytic resistance to FasSSGF containing porcine pancreatic pepsin. In kind it is in vitro ADME. The note with it: pig, simulated gastric fluid. The method, then: Stimulated Gastric Fluid (FasSSGF) Containing Porcine Pancreatic Pepsin Lyophilized porcine pancreatic pepsin (Sigma: P7012) was reconstituted to 0.5 mg/mL (˜2500 units/mL) in freshly prepared FasSSGF (Biorelevant media) to give the enzyme stock solution. Peptide stock solution was prepared to a concentration of 250 μM (˜1.0 mg/mL) in FasSSGF. 200 μL ([…], ˜250 units) of pepsin stock solution was added to 200 μL of peptide solution (1.0 mg/mL, ˜100 μg of peptide, ˜25 nmoles) and the mixture was co-incubated in a temperature-regulated incubator at 37° C. for the duration of the experiment. 30 μL aliquot of the peptide-enzyme mixture was periodically withdrawn (t=0, 5, 10, 15, and 30 min) and quenched immediately by addition of 80 μL of 0.1M ammonium bicarbonate solution in water/acetonitrile (4:1, pH 8) to arrest proteolytic activity. 30 μL aliquot was analyzed by analytical RP-HPLC. Analytical RP-HPLC method: Agilent Polaris C8-A column (4.6×100 mm, 3 micron) eluted with a linear binary gradient of 10-90% MeCN (0.1% TFA v/v) in water (0.1% TFA v/v) over either 10 or 15 mins at 1.5 mL min-1 at 40° C. with detection by UV absorption at 210 nm. Manual integration (AUC) allowed estimation of remaining intact peptide over the time course of the experiment.

A further data set deals with T1, recombinant Neprilysin (Homo sapiens, UniProt P08473).
T1 construct: purchased R&D Systems 1182-ZNC-010
As to the kind of experiment: Proteolytic resistance to neprilysin. In kind it is in vitro ADME. The following applies: pH 8.3; for remaining at 4 h / remaining at 24 h: isolated enzyme neprilysin. The method, then:
10.0 μg (˜10 units) recombinant Neprilysin (R&D Systems: 1182-ZNC-010) was reconstituted to 100 μL (100 μg/mL, ˜100 units/mL) in assay buffer (50 mM Tris, 50 mM NaCl, 50 mM NaHCO3, adjusted to pH 8.3) to give the enzyme stock solution. Peptide stock solutions were prepared to a concentration of ˜250 μM (˜1.0 mg/mL of 4 kDa peptide) in assay buffer. 100 μL (10 μg, ˜10 units) of neprilysin stock solution was added to 100 μL of peptide stock solution (1.0 mg/mL, ˜100 μg of peptide) and the mixture was co-incubated in a temperature regulated incubator at 37° C. for the duration of the experiment. 25 μL aliquots (˜ 12.5 μg initial peptide) of the peptide-enzyme mixture were periodically withdrawn (t=0, 30 mins, 1 h, 2 h, 4 h and 24 h) and quenched immediately by addition to an equal volume ([…]) of 10% TFA (v/v) in 1:1 water/acetonitrile to arrest proteolytic activity. The quenched aliquot centrifuged at 7800 rpm, and 30 μL of the supernatant was analyzed by analytical RP-HPLC as follows: Analytical RP-HPLC method: Agilent Polaris C8-A column (4.6×100 mm, 3 micron) eluted with a linear binary gradient of 10-90% MeCN (0.1% TFA v/v) in water (0.1% TFA v/v) over either 10 or 15 mins at 1.5 mL min-1 at 40° C. with detection by UV absorption at 210 nm. Manual integration (AUC) allowed estimation of remaining intact peptide over the time course of the experiment.

Data set [2] concerns the target human GLP-1 receptor (hGLP-1R) (Homo sapiens, UniProt P43220). The experiment in a line: cAMP production (HTRF) in CHO cells expressing hGLP-1R. The class given is cell-based. On the set-up: expressed in transfected cells. The following applies: for pEC50: cAMP in CHO hGLP-1R cells, geometric mean, read-out: hGLP-1R EC50; for % Relative Potency Ratio: % GLP-1R activity relative to GLP-1 / % GlucR activity relative to glucagon. Put shortly:
(§1)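 Potency values represent EC50 from 4-parameter logistic curves of HTRF % Delta F signal. Receptor-expressing CHO cells (hGCGR 2×10^5 cells/mL, hGLP-1R 1×10^5 cells/mL) were exposed for 30 min at room temperature before two-step cAMP detection.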

Data set [3] deals with human glucagon receptor (hGCGR) (Homo sapiens, UniProt P47871). As to the kind of experiment: cAMP production (HTRF) in CHO cells expressing hGCGR. In kind it is cell-based. On the set-up: expressed in transfected cells. The note with it: cAMP in CHO hGCGR cells, geometric mean, read-out: hGluc-R EC50. Put shortly:
as §1

Setting [4] is: Table 6, peptides modified at position 17.
Where [5] appears, read: Table 7, peptides modified at position 20.

T1 sequence (P08473 52-750 limits assumed): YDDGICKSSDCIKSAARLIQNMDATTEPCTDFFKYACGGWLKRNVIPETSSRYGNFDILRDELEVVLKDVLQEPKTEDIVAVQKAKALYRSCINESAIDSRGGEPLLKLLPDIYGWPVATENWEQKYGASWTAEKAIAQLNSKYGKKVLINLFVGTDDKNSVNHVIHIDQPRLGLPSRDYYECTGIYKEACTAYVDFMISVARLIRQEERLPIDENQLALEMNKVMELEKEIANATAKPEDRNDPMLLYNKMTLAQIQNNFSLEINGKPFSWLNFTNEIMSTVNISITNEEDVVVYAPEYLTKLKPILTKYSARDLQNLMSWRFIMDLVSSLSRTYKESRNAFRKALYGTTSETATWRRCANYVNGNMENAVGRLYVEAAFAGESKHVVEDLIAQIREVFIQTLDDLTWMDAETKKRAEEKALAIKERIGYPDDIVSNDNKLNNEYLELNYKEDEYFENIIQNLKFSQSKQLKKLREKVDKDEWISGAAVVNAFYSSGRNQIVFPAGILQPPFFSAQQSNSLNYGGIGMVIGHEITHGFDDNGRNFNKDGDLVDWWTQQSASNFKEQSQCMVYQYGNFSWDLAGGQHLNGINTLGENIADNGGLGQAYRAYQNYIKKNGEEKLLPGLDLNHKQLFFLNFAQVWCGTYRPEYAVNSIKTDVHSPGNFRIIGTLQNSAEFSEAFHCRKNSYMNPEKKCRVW
Chain of human GLP-1 receptor (hGLP-1R) (P43220 24-463): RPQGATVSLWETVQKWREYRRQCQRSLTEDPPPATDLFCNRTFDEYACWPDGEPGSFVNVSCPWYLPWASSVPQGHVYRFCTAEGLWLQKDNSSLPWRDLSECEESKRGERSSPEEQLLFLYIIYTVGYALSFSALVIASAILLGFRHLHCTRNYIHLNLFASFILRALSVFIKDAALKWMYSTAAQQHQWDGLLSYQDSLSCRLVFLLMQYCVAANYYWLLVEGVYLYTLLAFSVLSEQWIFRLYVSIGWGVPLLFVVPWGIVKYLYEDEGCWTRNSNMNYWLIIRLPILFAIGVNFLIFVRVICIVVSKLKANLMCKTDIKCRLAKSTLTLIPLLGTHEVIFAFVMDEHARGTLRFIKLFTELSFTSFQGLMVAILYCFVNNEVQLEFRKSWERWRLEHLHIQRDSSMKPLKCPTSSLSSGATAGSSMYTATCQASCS
Chain of human glucagon receptor (hGCGR) (P47871 26-477): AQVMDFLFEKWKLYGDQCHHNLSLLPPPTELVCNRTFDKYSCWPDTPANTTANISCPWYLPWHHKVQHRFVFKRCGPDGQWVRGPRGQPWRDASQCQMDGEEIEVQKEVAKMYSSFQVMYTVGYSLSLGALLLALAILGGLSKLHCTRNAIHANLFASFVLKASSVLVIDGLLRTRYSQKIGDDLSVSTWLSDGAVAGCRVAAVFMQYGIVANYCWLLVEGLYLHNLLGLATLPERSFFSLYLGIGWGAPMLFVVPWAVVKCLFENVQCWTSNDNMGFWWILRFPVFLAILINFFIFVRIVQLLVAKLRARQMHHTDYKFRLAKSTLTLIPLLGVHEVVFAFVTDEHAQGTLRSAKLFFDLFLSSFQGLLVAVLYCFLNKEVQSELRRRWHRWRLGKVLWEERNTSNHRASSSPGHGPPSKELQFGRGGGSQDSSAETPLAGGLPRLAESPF

`CC[C@H](C)[C@H](NC(=O)C(C)(C)NC(=O)[C@H](CCC(=O)O)NC(=O)[C@@H](NC(=O)[C@](C)(Cc1ccccc1)NC(=O)[C@H](CC(=O)O)NC(=O)[C@H](CCCNC(=N)N)NC(=O)[C@H](C)NC(=O)[C@H](C)NC(=O)[C@H](CCCCNC(=O)COCCOCCNC(=O)COCCOCCNC(=O)CC[C@H](NC(=O)CCCCCCCCCCCCCCCCC(=O)O)C(=O)O)NC(=O)[C@H](CO)NC(=O)[C@H](CC(=O)O)NC(=O)[C@H](CC(C)C)NC(=O)[C@](C)(Cc1ccccc1)NC(=O)[C@H](CCCCN)NC(=O)[C@H](CO)NC(=O)[C@@H](NC(=O)[C@H](CC(=O)O)NC(=O)[C@H](CO)NC(=O)[C@@H](NC(=O)[C@](C)(Cc1ccccc1)NC(=O)[C@H](CO)NC(=O)CNC(=O)[C@H](Cc1c[nH]cn1)NC(=O)C(C)(C)NC(=O)[C@@H](N)Cc1c[nH]cn1)[C@@H](C)O)C(C)C)C(C)C)C(=O)N[C@@H](C)C(=O)N[C@@H](CC(N)=O)C(=O)N[C@H](C(N)=O)[C@@H](C)O` [Peptide 15] (H-H[Aib]HGS[αMeF]TSDVSK[αMeF]LDSK([AEEA-AEEA-γGlu-C18 diacid])AARD[αMeF]VE[Aib]IANT-NH2; N-terminus assumed): in data set [1], the amount remaining at 0.25 h, 125 µM was 91% and the fraction remaining at 0.5 h, 125 µM was 77%. Further, on recombinant Neprilysin, the amount remaining at 4 h came out at 100%, the amount remaining at 24 h amounted to 83% and the “% intact peptide over time” value came out at 100%. In data set [2] (setting [4]), the negative logarithm of the EC50 (pEC50) is 10.48. Also, the “% Relative Potency Ratio” value in data set [2] (Table 6) came out at 3.7. Also, the pEC50 in data set [3] (setting [4]) is 10.21.

In the case of `CC[C@H](C)[C@H](NC(=O)C(C)(C)NC(=O)[C@H](CCC(N)=O)NC(=O)[C@@H](NC(=O)[C@](C)(Cc1ccccc1)NC(=O)[C@H](CC(=O)O)NC(=O)[C@H](CCCCNC(=O)COCCOCCNC(=O)COCCOCCNC(=O)CC[C@H](NC(=O)CC[C@H](NC(=O)CCCCCCCCCCCCCCCCCCC(=O)O)C(=O)O)C(=O)O)NC(=O)[C@H](C)NC(=O)[C@H](C)NC(=O)[C@H](CCCNC(=N)N)NC(=O)[C@H](CO)NC(=O)[C@H](CC(=O)O)NC(=O)[C@H](CC(C)C)NC(=O)[C@](C)(Cc1ccccc1)NC(=O)[C@H](CCCCN)NC(=O)[C@H](CO)NC(=O)[C@@H](NC(=O)[C@H](CC(=O)O)NC(=O)[C@H](CO)NC(=O)[C@@H](NC(=O)[C@H](Cc1ccccc1)NC(=O)[C@H](CO)NC(=O)CNC(=O)[C@H](Cc1c[nH]cn1)NC(=O)C(C)(C)NC(=O)[C@@H](N)Cc1c[nH]cn1)[C@@H](C)O)C(C)C)C(C)C)C(=O)N[C@@H](C)C(=O)N[C@@H](CC(N)=O)C(=O)N[C@H](C(N)=O)[C@@H](C)O` [Peptide 282] (H-H[Aib]HGSFTSDVSK[αMeF]LDSRAAK([AEEA-AEEA-γGlu-γGlu-C20 diacid])D[αMeF]VQ[Aib]IANT-NH2), in data set [1], the amount remaining at 0.25 h, 125 µM was 83% and the share remaining at 0.5 h, 125 µM was 76%. Moreover, at recombinant Neprilysin, the share remaining at 4 h is 100%, the fraction remaining at 24 h came out at 97% and the “% intact peptide over time” value came to 100%. Moreover, the pEC50 in data set [2] (setting [5]) was 8.91. In data set [2] (Table 7), the “% Relative Potency Ratio” value stood at 1.8. Besides, the pEC50 in data set [3] (setting [5]) is 8.94.

`CC[C@H](C)[C@H](NC(=O)C(C)(C)NC(=O)[C@H](CCC(N)=O)NC(=O)[C@@H](NC(=O)[C@](C)(Cc1ccccc1)NC(=O)[C@H](CC(=O)O)NC(=O)[C@H](CCCCNC(=O)COCCOCCNC(=O)COCCOCCNC(=O)CC[C@H](NC(=O)CC[C@H](NC(=O)CCCCCCCCCCCCCCCCCCC(=O)O)C(=O)O)C(=O)O)NC(=O)[C@H](C)NC(=O)[C@H](C)NC(=O)[C@H](CCCNC(=N)N)NC(=O)[C@H](CO)NC(=O)[C@H](CC(=O)O)NC(=O)[C@H](CC(C)C)NC(=O)[C@H](Cc1ccc(O)cc1)NC(=O)[C@H](CCCCN)NC(=O)[C@H](CO)NC(=O)[C@@H](NC(=O)[C@H](CC(=O)O)NC(=O)[C@H](CO)NC(=O)[C@@H](NC(=O)[C@](C)(Cc1ccccc1)NC(=O)[C@H](CO)NC(=O)CNC(=O)[C@H](Cc1c[nH]cn1)NC(=O)C(C)(C)NC(=O)[C@@H](N)Cc1c[nH]cn1)[C@@H](C)O)C(C)C)C(C)C)C(=O)N[C@@H](C)C(=O)N[C@@H](CC(N)=O)C(=O)N[C@H](C(N)=O)[C@@H](C)O` [Peptide 283] (H-H[Aib]HGS[αMeF]TSDVSKYLDSRAAK([AEEA-AEEA-γGlu-γGlu-C20 diacid])D[αMeF]VQ[Aib]IANT-NH2): in data set [1], the share remaining at 0.25 h, 125 µM was 68% and the amount remaining at 0.5 h, 125 µM was 48%. For the same compound, on recombinant Neprilysin, the amount remaining at 4 h was found to be 81%, the share remaining at 24 h worked out at 63% and the “% intact peptide over time” value came out at 100%. The pEC50 in data set [2] (setting [5]) was 9.89. Besides, the “% Relative Potency Ratio” value in data set [2] (Table 7) was determined as 8.4. The negative-log EC50 (pEC50) in data set [3] (setting [5]) was 9.26.

With `CC[C@H](C)[C@H](NC(=O)C(C)(C)NC(=O)[C@H](CCC(N)=O)NC(=O)[C@@H](NC(=O)[C@H](Cc1ccccc1)NC(=O)[C@H](CC(=O)O)NC(=O)[C@H](CCCCNC(=O)COCCOCCNC(=O)COCCOCCNC(=O)CC[C@H](NC(=O)CCCCCCCCCCCCCCCCC(=O)O)C(=O)O)NC(=O)[C@H](C)NC(=O)[C@H](C)NC(=O)[C@H](CCCNC(=N)N)NC(=O)[C@H](CO)NC(=O)[C@H](CC(=O)O)NC(=O)[C@H](CC(C)C)NC(=O)[C@](C)(Cc1ccccc1)NC(=O)[C@H](CCCCN)NC(=O)[C@H](CO)NC(=O)[C@@H](NC(=O)[C@H](CC(=O)O)NC(=O)[C@H](CO)NC(=O)[C@@H](NC(=O)[C@](C)(Cc1ccccc1)NC(=O)[C@H](CO)NC(=O)CNC(=O)[C@H](Cc1c[nH]cn1)NC(=O)C(C)(C)NC(=O)[C@@H](N)Cc1c[nH]cn1)[C@@H](C)O)C(C)C)C(C)C)C(=O)N[C@@H](C)C(=O)N[C@@H](CC(N)=O)C(=O)N[C@H](C(N)=O)[C@@H](C)O` [Peptide 287] (H-H[Aib]HGS[αMeF]TSDVSK[αMeF]LDSRAAK([AEEA-AEEA-γGlu-C18 diacid])DFVQ[Aib]IANT-NH2), in data set [1], the fraction remaining at 0.25 h, 125 µM is 0% and the fraction remaining at 0.5 h, 125 µM was 0%. Further, on recombinant Neprilysin, the amount remaining at 4 h came out at 77%, the fraction remaining at 24 h was found to be 59% and the “% intact peptide over time” value worked out at 100%. Also, in data set [2] (setting [5]), the negative logarithm of the EC50 (pEC50) is 10.56. Further, the “% Relative Potency Ratio” value in data set [2] (Table 7) is 1.9. The negative logarithm of the EC50 (pEC50) in data set [3] (setting [5]) was 10.58.

(Values after patent US20250353891A1 (MEDIMMUNE LIMITED, priority 2022, published 2025).)
